From patent publication EP0997137B1 (Société des Produits Nestlé S.A., priority 1998, dated 2000)

What was measured:
[1] = test system: TNF-α secretion of keratinocytes which are treated with TPA; assay: TNF-α secretion by TPA-treated immortalized human keratinocytes (ELISA of supernatant); format: cell-based; settings: for % of the control: control: TPA without piperonal
Protocol: These keratinocytes (cf. WO97/23602) are treated in this connection with inflammation-promoting substances, more specifically with a known skin irritant in the form of a phorbol ester (12-O-tetradecanoylphorbol acetate, abbreviated to TPA), and as a response to this treatment they display a typical inflammatory metabolic reaction, in particular an increase in the secretion of the inflammation-promoting cytokine TNF-α (tumour necrosis factor alpha).
A substance which inhibits the secretion of TNF-α in the case of TPA-treated keratinocytes in the above model in a dose-dependent manner is regarded as a potentially anti-inflammatory substance.
(§1) Specifically, the test is carried out by subjecting in vitro human keratinocytes, immortalized in culture, to an inflammation-promoting treatment using the abovementioned 12-O-tetradecanoylphorbol 13-acetate (TPA). The immortalized keratinocyte cell lines used are the cell lines DK2, FK2 or else DK7, which are described in the published International Patent Application WO 97/23602. The cell lines FK2 and DK2 were deposited on 5 October 1995 in accordance with the Budapest Treaty at the DSM depository (Deutsche Sammlung für Mikroorganismen und Zellkulturen GmbH, Mascheroder Weg 1b, D-38124 Braunschweig, Germany) and were given the deposit names DSM ACC2240 and DSM ACC2238. The cell line DK7-NR was deposited on 19 March 1998 at the Pasteur Institute, Paris (CNCM) under the number
I-1996. It is also possible to use an immortalized keratinocyte line HaCaT, which is described by Boukamp et al. in J. Cell. Biol., 106, 761-771, 1988).
Petri dishes (6 cm diameter), which contain 4 ml of the serum-free nutrient medium NR-2 (cf. WO97/23602; Biofluids), were inoculated with the abovementioned immortalized keratinocyte cell lines. As soon as confluence of the cell lawn was observed, the nutrient medium was replaced by a fresh, calcium-enriched nutrient medium NR-2 (1.5 mM CaCl2). The dishes were incubated for 2 days, the nutrient medium was replaced by fresh nutrient medium and the dishes were incubated for a further 2 days. […] In parallel, an identical batch without piperonal additive was prepared.
(§2) During the last 24 h of the above mentioned incubation, TPA in ethanol or a corresponding amount of ethanol was added in an amount of 10 ng/ml. The supernatants were then isolated and, by means of a known ELISA assay (Ruwag AG, Zurich, Switzerland) using specific antibodies to TNF-α (BioSource Inter., US, catalogue numbers KHC0012 and KHC3013), the concentration of TNF-α in the supernatant was determined.

keratinocytes = assay: Cytotoxic activity on the keratinocytes; settings: concentrations used in the experiments (0.01-0.1%)
[2] = test system: TNF-α secretion of keratinocytes; assay: Control experiments without TPA: TNF-α secretion by immortalized human keratinocytes (ELISA of supernatant); format: cell-based
Protocol: as §1
Petri dishes (6 cm diameter), which contain 4 ml of the serum-free nutrient medium NR-2 (cf. WO97/23602; Biofluids), were inoculated with the abovementioned immortalized keratinocyte cell lines. As soon as confluence of the cell lawn was observed, the nutrient medium was replaced by a fresh, calcium-enriched nutrient medium NR-2 (1.5 mM CaCl2). The dishes were incubated for 2 days, the nutrient medium was replaced by fresh nutrient medium and the dishes were incubated for a further 2 days.
as §2

[3] = TPA + hydrocortisone (concentration not given)

Row | SMILES | Amount of TNF-α determined ([1]; TPA 10 ng/ml + hydrocortisone (concentration not given)) [pg/mL] | % inhibition [1, 3] [%] | % of the control [1, 3] [%] | Amount of TNF-α determined ([1]; TPA 10 ng/ml + 0.01% of piperonal) [pg/mL] | Amount of TNF-α determined ([1]; TPA 10 ng/ml + 0.05% of piperonal) [pg/mL] | Amount of TNF-α determined ([1]; TPA 10 ng/ml + 0.1% of piperonal) [pg/mL] | % of the control ([1]; TPA + 0.01% of piperonal) [%] | % inhibition ([1]; TPA + 0.05% of piperonal) [%] | % of the control ([1]; TPA + 0.05% of piperonal) [%] | % inhibition ([1]; TPA + 0.1% of piperonal) [%] | % of the control ([1]; TPA + 0.1% of piperonal) [%] | cytotoxic activity (keratinocytes) | Amount of TNF-α determined ([2]; No TPA + 0.01% of piperonal) [pg/mL] | Amount of TNF-α determined ([2]; No TPA + 0.05% of piperonal) [pg/mL] | Amount of TNF-α determined ([2]; No TPA + 0.1% of piperonal) [pg/mL]
1 | C[C@]12CCC(=O)C=C1CC[C@@H]1[C@@H]2[C@@H](O)C[C@@]2(C)[C@H]1CC[C@]2(O)C(=O)CO [hydrocortisone, reference compound] | 220.4 | 26.4 | 73.6 |  |  |  |  |  |  |  |  |  |  |  | 
2 | O=Cc1ccc2c(c1)OCO2 [piperonal, 3,4-(methylenedioxy)benzaldehyde] |  |  |  | 331.2 | 78.1 | 100.6 | 110.6 | 73.9 | 26.1 | 66.4 | 33.6 | does not exhibit cytotoxic activity | 7.9 | 8.9 | 6.3
